Where two headings read alike, the source gives them in different places. Positions of bridges follow the written chain, without caps; N, C: chain ends. Non-standard residues stand in square brackets, D forms with d. Residues, ends and D or L forms follow the SMILES beside them. *: point of attachment. NMeF = CN[C@@H](Cc1ccccc1)C(=O)O; NMeI = CC[C@H](C)[C@H](NC)C(=O)O; NMeL = CN[C@@H](CC(C)C)C(=O)O; NMeA = CN[C@@H](C)C(=O)O; Piperidide = C1CCN(*)CC1; Sar = CNCC(=O)O; tBu = CC(C)(C)*
Assay: Metabolic stability in human hepatic microsome
Assay type: in vitro ADME
Settings: for microsomal CLint at 1 uM: human, pH 7.4, Hepatic microsome CLhint (Human) In the presence of NADPH

SMILES	Hepatic microsome CLhint (Human) In the absence of NADPH	microsomal CLint at 1 uM (microsomes)	Hepatic microsome CLhint (Human) In the presence of NADPH	microsomal CLint at 1 uM (liver microsomes)	Hepatic microsome CLhint (Human) In the presence of NADPH (Table 10, with NADPH)
CC(C)C[C@H]1C(=O)N[C@@H](COC(C)(C)C)C(=O)N[C@H](C(=O)N2CCCCC2)CC(=O)N[C@@H](C)C(=O)N(C)[C@@H](C)C(=O)N(C)[C@@H](Cc2ccccc2)C(=O)N(C)[C@@H](CC(C)C)C(=O)N[C@@H]([C@@H](C)O)C(=O)N(C)CC(=O)N1C [Compound P-119, Ala-MeAla-MePhe-MeLeu-Thr-MeGly-MeLeu-Ser(tBu)-Asp-piperidine] (A[NMeA][NMeF][NMeL]T[Sar][NMeL]S(tBu)D-Piperidide; lactam N-9)	5 ul/min/mg Protein	56 µL/min/mg	–	–	–
CC(C)C[C@H]1C(=O)N[C@@H](COC(C)(C)C)C(=O)N[C@H](C(=O)N2CCCCC2)CC(=O)N(C)[C@@H](C)C(=O)N(C)[C@@H](C)C(=O)N(C)[C@@H](Cc2ccccc2)C(=O)N(C)[C@@H](CC(C)C)C(=O)N[C@@H]([C@@H](C)O)C(=O)N(C)CC(=O)N1C [Compound P-120, MeAla-MeAla-MePhe-MeLeu-Thr-MeGly-MeLeu-Ser(tBu)-Asp-piperidine] ([NMeA][NMeA][NMeF][NMeL]T[Sar][NMeL]S(tBu)D-Piperidide; lactam N-9)	5 ul/min/mg Protein	–	–	–	–
CC(C)C[C@H]1C(=O)N[C@@H](COC(C)(C)C)C(=O)N[C@H](C(=O)N2CCCCC2)CCC(=O)N[C@@H](C)C(=O)N(C)[C@@H](C)C(=O)N(C)[C@@H](Cc2ccccc2)C(=O)N(C)[C@@H](CC(C)C)C(=O)N[C@@H]([C@@H](C)O)C(=O)N(C)CC(=O)N1C [Compound P-121, Ala-MeAla-MePhe-MeLeu-Thr-MeGly-MeLeu-Ser(tBu)-Glu-piperidine] (A[NMeA][NMeF][NMeL]T[Sar][NMeL]S(tBu)E-Piperidide; lactam N-9)	8 ul/min/mg Protein	–	69 ul/min/mg Protein	29 µL/min/mg	–
CC(C)C[C@H]1C(=O)N[C@@H](COC(C)(C)C)C(=O)N[C@H](C(=O)N2CCCCC2)CCC(=O)N(C)[C@@H](C)C(=O)N(C)[C@@H](C)C(=O)N(C)[C@@H](Cc2ccccc2)C(=O)N(C)[C@@H](CC(C)C)C(=O)N[C@@H]([C@@H](C)O)C(=O)N(C)CC(=O)N1C [Compound P-122, MeAla-MeAla-MePhe-MeLeu-Thr-MeGly-MeLeu-Ser(tBu)-Glu-piperidine] ([NMeA][NMeA][NMeF][NMeL]T[Sar][NMeL]S(tBu)E-Piperidide; lactam N-9)	1 ul/min/mg Protein	11 µL/min/mg	–	–	–
CC[C@H](C)[C@H]1C(=O)N[C@H](C(=O)N2CCCCC2)CC(=O)N[C@@H](C)C(=O)N(C)[C@@H](Cc2ccccc2)C(=O)N(C)[C@@H](CC(C)C)C(=O)N[C@@H]([C@@H](C)O)C(=O)N(C)CC(=O)N(C)[C@@H](CC(C)C)C(=O)N[C@@H](COC(C)(C)C)C(=O)N1C [Compound P-123, Ala-MePhe-MeLeu-Thr-MeGly-MeLeu-Ser(tBu)-MeIle-Asp-piperidine] (A[NMeF][NMeL]T[Sar][NMeL]S(tBu)[NMeI]D-Piperidide; lactam N-9)	0 ul/min/mg Protein	106 µL/min/mg	–	–	–
CC[C@H](C)[C@H]1C(=O)N[C@H](C(=O)N2CCCCC2)CC(=O)N[C@@H](C)C(=O)N(C)[C@@H](C)C(=O)N(C)[C@@H](Cc2ccccc2)C(=O)N(C)[C@@H](CC(C)C)C(=O)N[C@@H]([C@@H](C)O)C(=O)N(C)CC(=O)N(C)[C@@H](CC(C)C)C(=O)N[C@@H](COC(C)(C)C)C(=O)N1C [Compound P-125, Ala-MeAla-MePhe-MeLeu-Thr-MeGly-MeLeu-Ser(tBu)-MeIle-Asp-piperidine] (A[NMeA][NMeF][NMeL]T[Sar][NMeL]S(tBu)[NMeI]D-Piperidide; lactam N-10)	1 ul/min/mg Protein	–	–	–	35 ul/min/mg Protein

From US9409952B2, “Peptide-compound cyclization method” (Chugai Seiyaku Kabushiki Kaisha, priority 2011, dated 2016)
